Results on 15 compounds are retold here after patent US5045543A, “5-amino or substituted amino 1,2,3-triazoles useful as antimetastatic agents” (Merck & Co., Inc., priority 1989, dated 1991).

For data set [1], the system named is PAPp26 Murine Keratinocytes. As to conditions: proliferation assay.
Method: In these experiments Murine keratinocyte transformed cell line PAPp26 was cultured in Dulbecco's modified Eagle's medium with 10% fetal calf serum at 37° C., 5% CO2. Each well of a 96 well plate was seeded with 2000 cells in 200 μl of each drug dilution in duplicate. A plate was stopped and fixed for each time point, stained with Giemsa and then read in a Titertek plate reader at 650 nm, and the absorbances were calibrated with known cell numbers on control plates.
Data set [2] concerns psoriasis. The settings on record: cited from earlier work; for side effects in psoriasis treatment: in vivo; for efficacy in psoriasis: mycophenolic acid given orally; for clearing of psoriatic lesions: used experimentally.
Data set [3] has as its system pig skin epidermal basal cells (keratinocytes). Kind of data set: UV induced hyperproliferation in pig skin in vivo (topical antiproliferative activity). On the procedure: The topical antiproliferative activities, along with in vitro antiproliferative activities against human keratinocytes and fibroblasts, provide the biological data in support of the claimed utility:
In one experiment, a 20 kg pig was sedated and multiple areas of clipped skin were exposed to uv radiation sufficient to provoke a moderate hyperproliferative response within several days of exposure. On days 0, 1, 2 and 3 replicate irradiated sites were treated topically with Compound A in several vehicles or solvents. Topical preparations included a 2% drug in Gel #1, a combination of isopropyl myristate:Crodamol:ethanol, 1:1:2, or DMSO. The hyperproliferative response of the skin to uv was assessed on day 4 by injecting ^3 H-thymidine intradermally, and, 1 hour later, removing the sites by punch biopsy and processing the samples for autoradiography. Such autoradiographs indicate the number of epidermal cells in S phase synthesizing DNA and this is a common tool used by dermatologists to assess inhibition of proliferation in vivo. A single injection of methotrexate, 4 hours prior to ^3 H-thymidine injection was used as a positive control for inhibition of DNA synthesis. A labelling index, L.I., which is the percent of the total number of epidermal basal cells (keratinocytes) counted showing label incorporation. Four days after exposure to uv, the L.I. of pig skin increased from 7.6% to 20.8% (normal human skin ca. 2%, psoriatic lesions ca. 25%, for comparison).

The structures appear in SMILES notation. Values after ≈ are worked out from the molar mass of the structure shown.

As to `NC(=O)c1nnn(Cc2cc(Cl)c(C(=O)c3ccc(Cl)cc3)c(Cl)c2)c1N` [(B)], in data set [1], the ED50 PAPp26 worked out at 2 µg/mL (≈ 4.71 µM). The same measure, in the same setting: to `NC(=O)c1nnn(Cc2ccc(Sc3ccc(Cl)cc3)c(Cl)c2)c1N` [(C)] belongs 1 to 2 µg/mL (≈ 2.54 to 5.07 µM); to `NC(=O)c1nnn(Cc2ccc(Sc3ccc(Cl)cc3)c(C(F)(F)F)c2)c1N` [(D)], 1 to 2 µg/mL (≈ 2.34 to 4.67 µM); to `Cc1cc(Cn2nnc(C(N)=O)c2N)cc(Cl)c1C(=O)c1ccc(C(F)(F)F)cc1` [(E)], 2 µg/mL (≈ 4.57 µM). In data set [1], `N#Cc1ccc(C(=O)c2c(Cl)cc(Cn3nnc(C(N)=O)c3N)cc2Cl)cc1` [(F)] returned an ED50 PAPp26 of 2 µg/mL (≈ 4.82 µM). Still for that read-out and setting: the figure for `NC(=O)c1nnn(Cc2cc(Cl)c(C(=O)c3ccc(Cl)cc3)c(Br)c2)c1N` [(G)] is 2 µg/mL (≈ 4.26 µM); for `NC(=O)c1nnn(Cc2cc(Cl)c(Oc3ccc(Br)cc3)c(Cl)c2)c1N` [(H)] it is 1 to 2 µg/mL (≈ 2.19 to 4.38 µM).

`NC(=O)c1nnn(Cc2cc(Cl)c(C(=O)c3ccc(Br)cc3)c(Cl)c2)c1N` [(J)] registered an ED50 PAPp26 in data set [1] of 1 to 2 µg/mL (≈ 2.13 to 4.26 µM). On the same count and under the same terms, the figure for `NC(=O)c1nnn(Cc2cc(Cl)c(Oc3ccc([N+](=O)[O-])cc3)c(Cl)c2)c1N` [(K)] is 2 µg/mL (≈ 4.73 µM); for `Cc1cc(Cn2nnc(C(N)=O)c2N)cc(Cl)c1Oc1ccc(Cl)cc1` [(L)] it is 2 µg/mL (≈ 5.1 µM). `CN(Cc1cnc2nc(N)nc(N)c2n1)c1ccc(C(=O)N[C@@H](CCC(=O)O)C(=O)O)cc1` [Methotrexate, methotrexate, reference compound]: in data set [2], the “side effects in psoriasis treatment” value is on record as “unacceptable side effects due to toxicity” and the efficacy in psoriasis result is “effective in treating the disease”. For the same compound, the “UV induced hyperproliferation, % Inhibition” value in data set [3] (i.d. injection) stood at 93%. Further, in data set [3] (i.d., single injection 4 hours prior to 3H-thymidine, of 1175 basal cells counted), the “Labelled Cells” value was 100. Besides, in data set [3] (i.d., uv exposed Gel #1 control 20.8, normal 7.6), the “LI (labelling index)” value is given as 8.5%. Take `COc1c(C)c2c(c(O)c1C/C=C(\C)CCC(=O)O)C(=O)OC2` [Mycophenolic acid]: in data set [2], the “side effects in psoriasis treatment” value is listed as “unacceptable side effects”, the efficacy in psoriasis result is on record as “controls psoriasis by causing remission when given orally” and the “clearing of psoriatic lesions” value is “success in clearing lesions”. With `O=C(O)C[C@H](NC(=O)CP(=O)(O)O)C(=O)O` [N-phosphonacetyl-L-aspartate], in data set [2], the “side effects in psoriasis treatment” value was “unacceptable side effects due to toxicity” and the efficacy in psoriasis result is reported as “effective in treating the disease”.

In the case of `O=c1[nH]cc(F)c(=O)[nH]1` [fluorouracil], in data set [2], the “side effects in psoriasis treatment” value is reported as “unacceptable side effects due to toxicity” and the efficacy in psoriasis entry is given as “effective in treating the disease”. Consider `Nc1nc2nc[nH]c2c(=S)[nH]1` [thioguanine], for which, in data set [2], the “side effects in psoriasis treatment” value is “unacceptable side effects due to toxicity”, the efficacy in psoriasis result is reported as “effective in treating the disease” and the “clearing of psoriatic lesions” value is on record as “success in clearing lesions”.
